{"source": "paper PMC5656322", "about": "“BAK1 is involved in AtRALF1-induced inhibition of root cell expansion” (PLoS Genetics, 2017)", "key": {"[1]": {"test_system": "Arabidopsis endodermic root cells", "test": "Root cell length, endodermis of differentiation zone", "assay_type": "in vivo, Arabidopsis thaliana", "conditions": "10 μM, 2 days", "experimental": "(A) and (B) Arabidopsis seedlings (2 days old) were treated with 10 μM AtRALF1 or water (H20) for 2 days. The values are the mean ± SD of at least 25 seedlings. Triple asterisks indicate P < 0.01 (Student’s t test); ns, not significant. (C) Four-day-old seedlings were transferred to media containing different concentrations of AtRALF1, and the primary root length was measured after 8 days of treatment. The data represent the mean value ± SD of 30 seedlings. […] Representative Arabidopsis seedlings after 8 days of treatment with AtRALF1 are shown below. Seedlings were arranged on plates after the treatment for imaging. Scale bars, 1 cm. (D) Two-day-old seedlings were treated with 10 μM AtRALF1 or water for 2 days, and root cell length was measured after 2 days of treatment. Cells from the root endodermis in the differentiation zone were measured. The values are the mean ± SD of approximately 150 cells. […]\nAliquots of 1 ml of medium containing seeds were distributed into 24-well plates. The peptides (10 μM) were added after 2 days, and the root length was measured 2 days after treatment. […] The root length was measured 8 days after treatment unless stated otherwise. […] Quantitative data were obtained as previously described. […] For cell length measurements, AtRALF1 peptide (10 μM) was added after 2 days of germination, and the cell length was measured after 2 days of treatment. […]"}, "BRI1 (BRI1-ECD)": {"test_system": "BRI1 (BRI1-ECD)", "test": "Yeast two-hybrid with BRI1-ECD", "assay_type": "binding, Arabidopsis thaliana", "conditions": "yeast AH109, medium lacking Leu, Trp, His", "excerpt": "Fig 6 AtRALF1 interacts physically with BAK1 protein. (A) The active AtRALF1 peptide interacts with the extracellular domain (ECD) of BAK1 (BAK1-ECD) in yeast. The AtRALF1 protein fused to the GAL4 DNA-binding domain (AtRALF1-pGBKT7) was used as bait to test its interaction with the extracellular domain of the proteins fused to the GAL4 activation domain (pGADT7): BAK1 (BAK1-ECD), BAK7 (BAK7-ECD), BRI1 (BRI1-ECD) and FLS2 (FLS2-ECD). (B) Blueprint showing the truncated proteins from the extracellular domain of BAK1 tested in the two-hybrid assay. The extracellular domain of BAK1 comprises leucine zippers (LZ), 5 leucine rich-regions (LRRs) and a proline-rich region (pro-rich). (C) AtRALF1-pGBKT7 was used as bait to test its interaction with truncated proteins fused to the GAL4 activation domain (pGADT7). […] HA-BAK1-ECD was detected with an anti-HA antibody. AtRALF1 was detected with an anti-RALF antibody. […] BAK1-GFP was detected with an anti-GFP antibody. […]\nThe coding regions of the mature peptides AtRALF1 and AtRALF34 were amplified from Arabidopsis genomic DNA and fused to the GAL4 DNA-binding domain and the MYC epitope tag using the NdeI/BamHI sites in the pGBKT7 (Clontech) vector. […] The proteins fused to the HA and MYC epitope tags were detected by protein blotting. […]"}, "BAK1-GFP": {"test_system": "BAK1-GFP", "test": "BAK1 protein accumulation, protein blot anti-GFP", "assay_type": "in vivo, Arabidopsis thaliana", "conditions": "pBAK1:BAK1-GFP plants, 1 μM", "experimental": "Fig 4 The BAK1 gene is induced by AtRALF1. (A) BAK1 gene expression in the roots of Arabidopsis seedlings (10-days-old) treated with AtRALF1. Root tissues were collected 1 h after treatment. Semi-quantitative RT-PCR and qRT-PCR were performed using total RNA extracted from the roots of untreated (-) or treated (+) plants. GAPDH expression was used as an internal control. (B) Quantification of GFP fluorescence intensity. The values are the mean ± SD of 20 seedlings. Student’s t test was used to compare the values obtained from treated and untreated seedlings. Double asterisk indicates P < 0.05 (Student’s t test); ns, not significant. (C) Representative confocal images of pBAK1:BAK1-GFP seedlings (4 days old) treated with 1 μM AtRALF1. Images were captured 4 h after treatment and were obtained by scanning 10 slices over a distance of 7 μm. MZ, meristematic zone; EZ, elongation zone; DZ, Differentiation zone. Bars, 100 μm. (D) pBAK1:BAK1-GFP plants were treated with water or 1 μM AtRALF1. After treatment, protein extracts from pBAK1:BAK1-GFP roots were subjected to immunoblot analysis with anti-GFP antibody. Ponceau was used to show equal loading of protein."}}, "note": "Where no end group is shown, it is not given here.", "data": [{"substance": "AtRALF1: root-specific RALF isoform in Arabidopsis; recombinant peptide hormone produced in E. coli (ATTKYISYQSLKRNSVPCSRRGASYYNCQNGAQANPYSRGCSKIARCRS; ends and bridges not checked; cysteine pairing not given here)", "values": [{"measurement": "root cell length vs water-treated control", "setting": "[1]; bak1-1, bak1-3, bak1-4", "result": "showed no difference between AtRALF1-treated plants and the water-treated control"}, {"measurement": "reduction of root cell length vs water-treated control", "setting": "[1]; wild-type, ~150 cells", "result": 58, "unit": "%"}, {"measurement": "interaction with BRI1-ECD (Y2H complementation)", "setting": "BRI1 (BRI1-ECD)", "result": "able to complement only the BAK1-ECD construct"}, {"measurement": "BAK1 protein accumulation", "setting": "BAK1-GFP", "result": "BAK1 protein accumulation was also verified by protein blot"}]}]}
